Results from patent US10617680B2 (CELGENE QUANTICEL RESEARCH, INC., priority 2017, dated 2020).

Target: CBP (Homo sapiens (Human), UniProt Q92793)
Experiment: In vitro CBP inhibition (AlphaScreen, biotinylated H4-tetraacetyl peptide)
Format: binding
Settings: AlphaScreen, Table 29; read-out: CBP IC50
Description: The CBP-inhibitory activity of the compounds described herein was determined by calculating the IC50. More specifically, CBP inhibitor activity was assayed as follows: CBP was cloned and expressed in E. coli as His-tag protein and purified by Nickel affinity and gel-filtration chromatography. […] CBP binding and inhibition is assessed by monitoring the interaction of biotinylated H4-tetraacetyl peptide (AnaSpec, H4K5/8/12/16(Ac), biotin-labeled) with the target using the AlphaScreen technology (Perkin Elmer). In a 384-well ProxiPlate CBP (50 nM final) was combined with peptide (20 nM final) in 50 mM HEPES (pH 7.3), 10 mM NaCl, 0.25 mM TCEP, 0.1% (w/v) BSA, and 0.005% (w/v) Brij-35 either in the presence of DMSO (final 0.4% DMSO) or compound dilution series in DMSO. After 20 min incubation at room temp, Alpha-streptavidin donor beads and Nickel Chelate acceptor beads were added to a final concentration of 5 μg/mL.
The ability of the compounds disclosed herein to inhibit CBP activity was quantified and the respective IC50 value determined.

CBP, sequence (Q92793 1081-1197): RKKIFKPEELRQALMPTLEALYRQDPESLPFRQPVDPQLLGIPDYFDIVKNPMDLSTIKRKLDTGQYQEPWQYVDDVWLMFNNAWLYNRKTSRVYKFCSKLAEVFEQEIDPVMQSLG

Row | SMILES | IC50 [nM]
1 | O=c1cc(-c2ccccc2)c(-c2cnn(Cc3ccccc3)c2)cn1C(F)F [Example 35, 5-(1-benzyl-1H-pyrazol-4-yl)-1-(difluoromethyl)-4-phenyl-pyridin-2(1H)-one] | 500 to 5000
2 | CC(C)Oc1cc(=O)n(C)cc1-c1cnn(C(C)c2ccccc2)c1 (stereo not drawn) [Example 36, 4-isopropoxy-1-methyl-5-(1-(1-phenylethyl)-1H-pyrazol-4-yl)pyridin-2(1H)-one] | < 500
3 | Cn1cc(-c2cnn(Cc3ccccc3)c2)c(N2CCC(S(C)(=O)=O)C2)cc1=O (stereo not drawn) [Example 37, 5-(1-Benzyl-1H-pyrazol-4-yl)-4-(3-methanesulfonyl-pyrrolidin-1-yl)-1-methyl-1H-pyridin-2-one] | < 500
4 | CC(c1ccccc1)n1cc(-c2cn(C)c(=O)cc2Cl)cn1 (stereo not drawn) [Example 38, 4-chloro-1-methyl-5-(1-(1-phenyl-ethyl)-1H-pyrazol-4-yl) pyridin-2(1H)-one] | < 500
5 | CC(C)Oc1cc(=O)n(C)cc1-c1cnn([C@H](C)c2ccccc2)c1 [Example 45, (R)-4-isopropoxy-1-methyl-5-(1-(1-phenylethyl)-1H-pyrazol-4-yl) pyridin-2(1H)-one] | < 500
6 | CC(C)Oc1cc(=O)n(C)cc1-c1cnn([C@@H](C)c2ccccc2)c1 [Example 46, (S)-4-isopropoxy-1-methyl-5-(1-(1-phenylethyl)-1H-pyrazol-4-yl) pyridin-2(1H)-one] | < 500
7 | CC(C)COc1cc(=O)n(C)cc1-c1cnn(C(C)c2ccccc2)c1 (stereo not drawn) [Example 48, 4-isobutoxy-1-methyl-5-(1-(1-phenylethyl)-1H-pyrazol-4-yl) pyridin-2(1H)-one] | < 500
8 | CC(c1ccccc1)n1cc(-c2cn(C)c(=O)cc2OC2CCC2)cn1 (stereo not drawn) [Example 49, 4-cyclobutoxy-1-methyl-5-(1-(1-phenylethyl)-1H-pyrazol-4-yl) pyridin-2(1H)-one] | < 500
9 | CC(c1ccccc1)n1cc(-c2cn(C)c(=O)cc2Oc2ccccc2)cn1 (stereo not drawn) [Example 57, 1-methyl-4-phenoxy-5-(1-(1-phenylethyl)-1H-pyrazol-4-yl) pyridin-2(1H)-one] | 500 to 5000
10 | COC1CN(c2cc(=O)n(C)cc2-c2cnn(C(C)c3ccccc3)c2)C1 (stereo not drawn) [Example 58, 4-(3-methoxyazetidin-1-yl)-1-methyl-5-(1-(1-phenylethyl)-1H-pyrazol-4-yl)pyridin-2(1H)-one] | 500 to 5000
11 | Cn1cc(-c2cnn(Cc3ccccc3)c2)c(-n2cccn2)cc1=O [Example 66, 5-(1-benzyl-1H-pyrazol-4-yl)-1-methyl-4-(1H-pyrazol-1-yl) pyridin-2(1H)-one] | 500 to 5000
12 | Cn1cc(-c2cnn(Cc3ccccc3)c2)c(N2CCOCC2)cc1=O [Example 67, 5-(1-benzyl-1H-pyrazol-4-yl)-1-methyl-4-morpholino-pyridin-2(1H)-one] | < 500
13 | Cn1cc(-c2cnn(Cc3ccccc3)c2)c(-n2cccc2)cc1=O [Example 68, 5-(1-benzyl-1H-pyrazol-4-yl)-1-methyl-4-(1H-pyrrol-1-yl) pyridi-2(1H)-one] | < 500
14 | CCOc1cc(=O)n(C)cc1-c1cn[nH]c1 [Example 69, 4-ethoxy-1-methyl-5-(1H-pyrazol-4-yl)pyridin-2(1H)-one] | < 500
15 | CCOc1cc(=O)n(C)cc1-c1cnn(Cc2cccc(C(=O)OC)c2)c1 [Example 71, methyl 3-((4-(4-ethoxy-1-methyl-6-oxo-1,6-dihydropyridin-3-yl)-1H-pyrazol-1-yl)methyl)benzoate] | < 500
16 | CC(=O)N[C@@H]1CCN(c2cc(=O)n(C)cc2-c2cnn(Cc3ccccc3)c2)C1 [Example 72, (R)-N-(1-(5-(1-benzyl-1H-pyrazol-4-yl)-1-methyl-2-oxo-1,2-dihydropyridin-4-yl)pyrrolidin-3-yl)acctamide] | 500 to 5000
17 | CC(=O)N[C@H]1CCN(c2cc(=O)n(C)cc2-c2cnn(Cc3ccccc3)c2)C1 [Example 73, (S)-N-(1-(5-(1-benzyl-1H-pyrazol-4-yl)-1-methyl-2-oxo-1,2-dihydropyridin-4-yl)pyrrolidin-3-yl) acetamide] | 500 to 5000
18 | Cn1cc(-c2cnn(Cc3ccccc3)c2)c(N2CC[C@H](C(=O)O)C2)cc1=O [Example 75, (S)-1-(5-(1-benzyl-1H-pyrazol-4-yl)-1-methyl-2-oxo-1,2-dihydro-pyridin-4-yl)pyrrolidine-3-carboxylic acid] | < 500
19 | CNC(=O)c1ccn(-c2cc(=O)n(C)cc2-c2cnn(Cc3ccccc3)c2)c1 [Example 76] | < 500
20 | COC(=O)c1ccn(-c2cc(=O)n(C)cc2-c2cnn(Cc3ccccc3)c2)c1 [Example 77, methyl 1-(5-(1-benzyl-1H-pyrazol-4-yl)-1-methyl-2-oxo-1,2-dihydro-pyridin-4-yl)-1H-pyrrole-3-carboxylate] | < 500

Further lines, results first:

Row | IC50 [nM] | SMILES
21 | < 500 | CC(c1ccccc1)n1cc(-c2cn(C)c(=O)cc2N2CCC2)cn1 (stereo not drawn) [Example 40, 4-(azetidin-1-yl)-1-methyl-5-(1-(1-phenylethyl)-1H-pyrazol-4-yl) pyridin-2(1H)-one]
22 | < 500 | CNc1cc(=O)n(C)cc1-c1cnn(C(C)c2ccccc2)c1 (stereo not drawn) [Example 42, 1-methyl-4-(methyl-amino)-5-(1-(1-phenylethyl)-1H-pyrazol-1-yl) pyridin-2(1H)-one]
23 | < 500 | CC(c1ccccc1)n1cc(-c2cn(C)c(=O)cc2OCc2ccn(C)n2)cn1 (stereo not drawn) [Example 44, 1-methyl-4-((1-methyl-1H-pyrazol-3-yl)methoxy)-5-(1-(1-phenyl-ethyl)-1H-pyrazol-4-yl) pyridin-2(1H)-one]
24 | < 500 | C[C@@H](c1ccccc1)n1cc(-c2cn(C)c(=O)cc2N2CCCC2)cn1 [Example 47, (S)-1-methyl-5-(1-(1-phenylethyl)-1H-pyrazol-4-yl)-4-(pyrrolidin-1-yl)pyridin-2(1H)-one]
25 | < 500 | CC(=O)N1CC(Oc2cc(=O)n(C)cc2-c2cnn(C(C)c3ccccc3)c2)C1 (stereo not drawn) [Example 50, 4-((1-acetylazetidin-3-yl)oxy)-1-methyl-5-(1-(1-phenylethyl)-1H-pyrazol-4-yl)pyridin-2(1H)-one]
26 | < 500 | CC(c1ccccc1)n1cc(-c2cn(C)c(=O)cc2OC2CCCC2)cn1 (stereo not drawn) [Example 51, 4-(cyclopentyloxy)-1-methyl-5-(1-(1-phenylethyl)-1H-pyrazol-4-yl) pyridin-2(1H)-one]
27 | < 500 | CC(c1ccccc1)n1cc(-c2cn(C)c(=O)cc2OC2CCCCC2)cn1 (stereo not drawn) [Example 52, 4-(cyclohexyloxy)-1-methyl-5-(1-(1-phenylethyl)-1H-pyrazol-4-yl) pyridin-2(1H)-one]
28 | < 500 | CC(c1ccccc1)n1cc(-c2cn(C)c(=O)cc2-n2cccn2)cn1 (stereo not drawn) [Example 53, 1-methyl-5-(1-(1-phenylethyl)-1H-pyrazol-4-yl)-4-(1H-pyrazol-1-yl) pyridin-2(1H)-one]
29 | < 500 | CC1CN(c2cc(=O)n(C)cc2-c2cnn(C(C)c3ccccc3)c2)C1 (stereo not drawn) [Example 54, 1-methyl-4-(3-methylazetidin-1-yl)-5-(1-(1-phenylethyl)-1H-pyrazol-4-yl)pyridin-2(1H)-one]
30 | < 500 | C[C@H](c1ccccc1)n1cc(-c2cn(C)c(=O)cc2N2CCCC2)cn1 [Example 55, (R)-1-methyl-5-(1-(1-phenylethyl)-1H-pyrazol-4-yl)-4-(pyrrolidin-1-yl)pyridin-2(1H)-one]
31 | < 500 | CC(c1ccccc1)n1cc(-c2cn(C)c(=O)cc2OCc2ccccc2)cn1 (stereo not drawn) [Example 56, 4-(benzyloxy)-1-methyl-5-(1-(1-phenylethyl)-1H-pyrazol-4-yl) pyridin-2(1H)-one]
32 | < 500 | CC(c1ccccc1)n1cc(-c2cn(C)c(=O)cc2OC2CC2)cn1 (stereo not drawn) [Example 59, 4-cyclopropoxy-1-methyl-5-(1-(1-phenylethyl)-1H-pyrazol-4-yl) pyridin-2(1H)-one]
33 | < 500 | C[C@@H](c1ccccc1)n1cc(-c2cn(C)c(=O)cc2-n2cccn2)cn1 [Example 60, (S)-1-methyl-5-(1-(1-phenylethyl)-1H-pyrazol-4-yl)-4-(1H-pyrazol-1-yl)pyridin-2(1H)-one]
34 | < 500 | C[C@H](c1ccccc1)n1cc(-c2cn(C)c(=O)cc2-n2cccn2)cn1 [Example 61, (R)-1-methyl-5-(1-(1-phenylethyl)-1H-pyrazol-4-yl)-4-(1H-pyrazol-1-yl)pyridin-2(1H)-one]
35 | < 500 | CCOc1cc(=O)n(C)cc1-c1cnn(C(C)c2ccc(C)cc2)c1 (stereo not drawn) [Example 62, 4-ethoxy-1-methyl-5-(1-(1-(p-tolyl)ethyl)-1H-pyrazol-4-yl) pyridin-2(1H)-one]
36 | < 500 | CCOc1cc(=O)n(C)cc1-c1cnn(C(C)c2ccc(-c3ccccc3)cc2)c1 (stereo not drawn) [Example 63, 5-(1-(1-([1,1′-biphenyl]-4-yl)ethyl)-1H-pyrazol-4-yl)-4-ethoxy-1-methylpyridin-2(1H)-one]
37 | < 500 | CCOc1cc(=O)n(C)cc1-c1cnn(Cc2ccccc2)c1 [Example 64, 5-(1-benzyl-1H-pyrazol-4-yl)-4-ethoxy-1-methylpyridin-2(1H)-one]
38 | < 500 | CCOc1cc(=O)n(C)cc1-c1cnn(Cc2ccc(C)cc2)c1 [Example 65, 4-ethoxy-1-methyl-5-(1-(4-methylbenzyl)-1H-pyrazol-4-yl) pyridin-2(1H)-one]
39 | < 500 | CCOc1cc(=O)n(C)cc1-c1cnn(Cc2ccccc2C(=O)OC)c1 [Example 70, methyl 2-((4-(4-ethoxy-1-methyl-6-oxo-1,6-dihydropyridin-3-yl)-1H-pyrazol-1-yl)methyl)benzoate]
